Article PMC10135569, “Does Enhanced Structural Maturity of hiPSC-Cardiomyocytes Better for the Detection of Drug-Induced Cardiotoxicity?” (Biomolecules, 2023)

Tests used:
[1] = test system: hiPSC-CMs (iCell2 Cardiomyocytes) 2D monolayers; assay: Membrane potential (action potential) recordings with FluoVolt voltage-sensitive dye on the CellOPTIQ platform; format: cell-based, human; conditions: for activity at 0.1 µM / activity at 0.3 µM / activity at 1 µM / activity at 3 µM: Homo sapiens, Cardiomyocyte, 0.5 h, 30 min, delta over DMSO 0.1%
Procedure, shortened: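 iCell2 hiPSC-CM monolayers (50,000 cells/well on fibronectin or Matrix Plus, days 5–6) were loaded with FluoVolt (1:1000, 20 min, 37 °C) and imaged at 37 °C with 470 nm excitation and 510–560 nm emission sampled at 10 kHz. Spontaneous action potentials were recorded for 10 s at baseline and 30 min after drug, with one of four concentrations per well (n = 8).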

[2] = listed in Supplementary Table S1; no reference given; cited from earlier work
[3] = test system: hiPSC-CMs (iCell2 Cardiomyocytes) 2D monolayers; assay: Contractility measurements using video imaging (ContractilityTool / MUSCLEMOTION); format: cell-based, human; conditions: for activity at 0.1 µM / activity at 0.3 µM / activity at 1 µM / activity at 3 µM: Homo sapiens, Cardiomyocyte, 0.5 h, 30 min, delta over DMSO 0.1%
Procedure, shortened: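 Monolayers on fibronectin or Matrix Plus coating, tested on days 5–6 in serum-free medium. Four concentrations, one per well, n = 8, with vehicle control.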

[4] = 0.01–1 uM, two 2D monolayer models
[5] = FM monolayer, read-out: APD30 (%DD)
[6] = FM monolayer, read-out: APD90 (%DD)
[7] = FM monolayer, read-out: CL (%DD)
[8] = FM monolayer, read-out: Trise (%DD)
[9] = MM monolayer, read-out: APD30 (%DD)
[10] = MM monolayer, read-out: APD90 (%DD)
[11] = MM monolayer, read-out: CL (%DD)
[12] = MM monolayer, read-out: Trise (%DD)
[13] = FM monolayer, read-out: CtAmp (%DD)
[14] = FM monolayer, read-out: CtD50 (%DD)
[15] = MM monolayer, read-out: CtAmp (%DD)
[16] = MM monolayer, read-out: CtD50 (%DD)

With `C[C@@H]1CC(=O)NN=C1c1ccc(NN=C(C#N)C#N)cc1` [Levosimendan] the “effects on electrical activity” value [1, 4] was “no physiologically significant effects”, the activity at 0.1 µM [1, 5] was 102 ± 2.2% and the activity at 0.1 µM [1, 6] was 96 ± 1.7%. It also gave an activity at 0.1 µM [1, 7] of 95 ± 1.4%, an activity at 0.1 µM [1, 8] of 97 ± 22.3% and an activity at 0.3 µM [1, 5] of 101 ± 2.9%. It also gave an activity at 0.3 µM [1, 6] of 94 ± 1.1%, an activity at 0.3 µM [1, 7] of 93 ± 1.1% and an activity at 0.3 µM [1, 8] of 80 ± 13.5%. The activity at 1 µM [1, 5] was 94 ± 3%, the activity at 1 µM [1, 6] was 93 ± 0.6% and the activity at 1 µM [1, 7] was 93 ± 1.6%. It also gave an activity at 1 µM [1, 8] of 65 ± 9.5%, an activity at 3 µM [1, 5] of 99 ± 3.9% and an activity at 3 µM [1, 6] of 94 ± 1%. The activity at 3 µM [1, 7] was 97 ± 1.2%, the activity at 3 µM [1, 8] was 101 ± 24.9% and the activity at 0.1 µM [1, 9] was 97 ± 1.4%. The activity at 0.1 µM [1, 10] was 96 ± 1.2%, the activity at 0.1 µM [1, 11] was 99 ± 0.8% and the activity at 0.1 µM [1, 12] was 107 ± 17.8%. For the same compound, the activity at 0.3 µM [1, 9] was 100 ± 2.2%, the activity at 0.3 µM [1, 10] was 100 ± 1% and the activity at 0.3 µM [1, 11] was 97 ± 0.7%. The activity at 0.3 µM [1, 12] was 121 ± 16.3%, the activity at 1 µM [1, 9] was 95 ± 1.7% and the activity at 1 µM [1, 10] was 98 ± 0.9%. It also gave an activity at 1 µM [1, 11] of 97 ± 0.7%, an activity at 1 µM [1, 12] of 96 ± 7.8% and an activity at 3 µM [1, 9] of 93 ± 1.9%. The activity at 3 µM [1, 10] was 98 ± 0.9%, the activity at 3 µM [1, 11] was 98 ± 0.5% and the activity at 3 µM [1, 12] was 114 ± 10.2%. The “Free Cmax” value [2] was 100 nM, the “effects on contractile activity” value [3, 4] was “no physiologically significant effects” and the activity at 0.1 µM [3, 13] was 125 ± 20.8%. For the same compound, the activity at 0.1 µM [3, 14] was 94 ± 3.2%, the activity at 0.3 µM [3, 13] was 94 ± 9.6% and the activity at 0.3 µM [3, 14] was 100 ± 2.4%. It also gave an activity at 1 µM [3, 13] of 155 ± 32.5%, an activity at 1 µM [3, 14] of 102 ± 2.7% and an activity at 3 µM [3, 13] of 122 ± 26.6%. For the same compound, the activity at 3 µM [3, 14] was 101 ± 1.8%, the activity at 0.1 µM [3, 15] was 120 ± 12.4% and the activity at 0.1 µM [3, 16] was 104 ± 2%. It also gave an activity at 0.3 µM [3, 15] of 95 ± 8.1%, an activity at 0.3 µM [3, 16] of 102 ± 1.3% and an activity at 1 µM [3, 15] of 199 ± 27.2%. It also gave an activity at 1 µM [3, 16] of 104 ± 2%, an activity at 3 µM [3, 15] of 167 ± 33.5% and an activity at 3 µM [3, 16] of 103 ± 2.3%. The “increasing the amplitude of contraction (positive inotropy)” value ([3]; both experimental groups) was “ineffective”, the “contractile amplitude at higher concentrations (in words)” value ([3]; higher concentrations, FM and MM, not statistically significant) was “increased” and the “change in amplitude of contraction at higher concentrations” value ([3]; higher concentrations, both groups, failed to reach significance) was less than 20%.
